The nature of data set [1]: Evaluation of gelation of lipid peptides with phosphate buffer. In kind it is physicochemical. As to the method: Each of the lipid peptides synthesized in Examples 3 to 10 and Example 14 was placed in a sample tube. Each of three phosphate buffers (PBS) (pH=2.6, 7.4, or 10) was added so that a solution would have a lipid peptide concentration of 0.25 or 0.5% (w/v) (conditions A to F). Then, the mixture was heated at 90° C. or more to dissolve the lipid peptide, and then allowed to cool.

Data set [2] in a line: Evaluation of gelation of lipid peptides with pure water. Format: physicochemical. As for the experimental part:
Each of the lipid peptides synthesized in Examples 1, 6, 7, 8, and 10 was placed in a sample tube. Pure water (without metals and ions) was added so that a solution would have a lipid peptide concentration of 0.25 or 0.5% (w/v) (w means mass (g), and v means volume (mL)). The mixture was heated at 90° C. or more to dissolve the lipid peptide, and then allowed to cool.

[3] abbreviates: acidic region (pH=2.6), concentration 0.25%.
Setting [4] is: acidic region (pH=2.6), concentration 0.5%.
The mark [5] stands for this setting: condition A: phosphate buffer pH = 2.6, 0.5% (w/v).
Where [6] appears, read: condition B: phosphate buffer pH = 2.6, 0.25% (w/v).
[7] abbreviates: condition C: phosphate buffer pH-7.4, 0.5% (w/v).
The mark [8] stands for this setting: condition D: phosphate buffer pH-7.4, 0.25% (w/v).
Where [9] appears, read: condition E: phosphate buffer pH = 10, 0.5% (w/v).

Residues, ends and D or L forms follow the SMILES beside them.

With `CCCCCCCCCCCC(=O)NCC(=O)N[C@@H](Cc1c[nH]cn1)C(=O)O.O=C(O)C(F)(F)F` [Example 6, N-Lauroyl-Gly-His.TFA Salt] (HELM PEPTIDE1{[CCCCCCCCCCCC(=O)[*:2]].G.H}$$$$V2.0), the “Gel formation” value is recorded as “formed gels” in data set [1] (setting [3]); “formed gels” in data set [1] (setting [4]); “formed a gel” in data set [1] (basic region (pH=10), concentration 0.25%). Also, the Gelation result is “◯” in data set [1] (setting [5]); “◯” in data set [1] (setting [6]); “◯” in data set [1] (setting [7]); “◯” in data set [1] (setting [8]); “◯” in data set [1] (setting [9]); “◯” in data set [1] (condition F: phosphate buffer pH = 10, 0.25% (w/v)). Also, the Gelation result in data set [2] (lipid peptide 0.25% (w/v)) and in data set [2] (lipid peptide 0.50% (w/v)) was “◯” throughout.
Turning to `CCCCCCCCCCCCCCCCCCCCCC(=O)NCC(=O)N[C@@H](Cc1c[nH]cn1)C(=O)O.O=C(O)C(F)(F)F` [Example 7, N-Behenoyl-Gly-His.TFA Salt], the “Gel formation” value in data set [1] (setting [4]) is given as “formed gels”. Moreover, the Gelation entry in data set [1] (setting [5]), in data set [1] (setting [7]), in data set [1] (setting [8]), in data set [1] (setting [9]), in data set [2] (lipid peptide 0.25% (w/v)) and in data set [2] (lipid peptide 0.50% (w/v)) was “◯” in each case.
As to `CCCCCCCCCCCCCC(=O)NCC(=O)N[C@@H](Cc1c[nH]cn1)C(=O)O.O=C(O)C(F)(F)F` [Example 8, N-Myristoyl-Gly-His.TFA Salt] (HELM PEPTIDE1{[CCCCCCCCCCCCCC(=O)[*:2]].G.H}$$$$V2.0), the “Gel formation” value in data set [1] (setting [3]) and in data set [1] (setting [4]) was “formed gels” in each case. The Gelation entry in data set [1] (setting [5]), in data set [1] (setting [6]), in data set [1] (setting [7]), in data set [1] (setting [8]), in data set [1] (setting [9]) and in data set [2] (lipid peptide 0.25% (w/v)) was “◯” throughout. In data set [2] (lipid peptide 0.50% (w/v)), the Gelation entry is on record as “◯”.
`CCCCCCCCCCCCCCCC(=O)N[C@@H](C)C(=O)N[C@@H](Cc1c[nH]cn1)C(=O)O.O=C(O)C(F)(F)F` [Example 10, N-Palmitoyl-Ala-His.TFA salt] (HELM PEPTIDE1{[CCCCCCCCCCCCCCCC(=O)[*:2]].A.H}$$$$V2.0): the “Gel formation” value in data set [1] (setting [3]) and in data set [1] (setting [4]) was “formed gels” throughout. The Gelation result in data set [1] (setting [5]), in data set [1] (setting [6]), in data set [1] (setting [7]), in data set [1] (setting [8]), in data set [1] (setting [9]) and in data set [2] (lipid peptide 0.25% (w/v)) was “◯” throughout. Moreover, in data set [2] (lipid peptide 0.50% (w/v)), the Gelation result was “◯”.
Consider `CCCCCCCCCCCCCCCC(=O)N[C@H](C(=O)N[C@@H](Cc1c[nH]cn1)C(=O)O)C(C)C.O=C(O)C(F)(F)F` [Example 11, N-Palmitoyl-Val-His.TFA Salt] (HELM PEPTIDE1{[CCCCCCCCCCCCCCCC(=O)[*:2]].V.H}$$$$V2.0), for which the Gelation result in data set [1] (setting [7]), in data set [1] (setting [8]) and in data set [1] (setting [9]) was “◯” each time.
As to `CCCCCCCCCCCCCCCC(=O)N[C@@H](Cc1c[nH]cn1)C(=O)NCC(=O)O.O=C(O)C(F)(F)F` [Example 14, N-Palmitoyl-His-Gly.TFA Salt] (HELM PEPTIDE1{[CCCCCCCCCCCCCCCC(=O)[*:2]].H.G}$$$$V2.0), the Gelation result in data set [1] (setting [7]), in data set [1] (setting [8]) and in data set [1] (setting [9]) was “◯” in each case.

For the origin of these results see patent US9289496B2, “Lipid dipeptide and gel” (Nissan Chemical Industries, Ltd., priority 2008, dated 2016).
